Measured values as given in patent publication EP0346694A1, “Substituted 3-Aminosydnone imines, process for their preparation and their use” (CASSELLA Aktiengesellschaft, priority 1988, dated 1989).
Where a name gives a salt, the structure may show the parent alone.

system: Spiralstreifen der Arteria pulmonalis des Meerschweinchens; experiment: Relaxation of potassium-depolarised, CaCl₂-contracted spiral strips of guinea pig pulmonary artery (modified method of Godfraind and Kaba / Schüman et al); type: cell-based, Meerschweinchen; conditions: Cavia porcellus; concentration inhibiting the contraction by 50 %; strips depolarised with 40 mmol/l Kalium in calcium-free Tyrode solution, contraction by 0,5 mmol/l CaCl₂; cumulative addition; mean of 4 to 6 strips; read-out: IC₅₀ (converted)
Description: Die pharmakologische Wirkung der verbindungen der Formel I wurde nach einer modifizierten Methode von Godfraind and Kaba (Arch.Int. Pharmacodyn. Ther. 196, (Suppl) 35 bis 49, 1972) und von Schüman et al (Naunyn-Schmiedeberg's Arch. Pharmacol. 289, 409 bis 418, 1975) ermittelt. Dabei werden Spiralstreifen der Arteria pulmonalis des Meerschweinchens nach Äquilibrierung in calciumfreier Tyrodelösung mit 40 mmol/l Kalium depolarisiert. Ein Zusatz von 0,5 mmol/l CaCl₂ löst dann eine Kontraktion aus. Die relaxierende Wirkung der Prüfsubstanz wird durch kumulative Zugabe in 1/2 log 10 abgestuften Konzentrationen ermittelt. Aus der Konzentrationswirkungskurve (Abszisse: -log mol/l Prüfsubstanz, Ordinate: % Hemmung der maximalen Kontraktion, Mittelwert von 4 bis 6 Gefäß-streifen) wird die Konzentration der Prüfsubstanz ermittelt, welche die Kontraktion um 50 % hemmt (= IC₅₀, mol/l). In der folgenden Tabelle sind die so erhaltenen IC₅₀-Werte angegeben. Wie der Vergleich mit dem IC₅₀-Wert 3·10⁻⁴ für die bekannte Verbindung Molsidomin (N-Ethoxycarbonyl-3-morpholino-sydnonimin), vgl. DE-B-16 95 897, ergibt, liegen die Werte für die Verbindungen der Formel I erheblich günstiger.

IC50 [nM]	SMILES
1000	CC1(C)COCCN1[n+]1cc([NH-])on1 [a, 3-(3.3-Dimethylmorpholin-4-yl)-sydnonimin-hydrochlorid]
1000	CC1(C)CCCCN1[n+]1cc([NH-])on1 [b, 3-(2.2-Dimethylpiperidin-1-yl)-sydnonimin-hydrochlorid]
300000	CCOC(=O)[N-]c1c[n+](N2CCOCC2)no1 [d, N-Ethoxycarbonyl-3-morpholino-sydnonimin, reference compound]

SMILES	IC50 [nM]
CC(C)N1CCN([n+]2cc([NH-])on2)C(C)(C)C1 [c, 3-(4-Isopropyl-2.2-dimethyl-piperazin-1-yl)-sydnonimin-dihydrochlorid]	1000
